Data: US12673945B2, “3-((8-((1H-pyrazol-4-yl)amino)imidazo[1,2-a]pyridin-3-yl)ethinyl)-n-phenylbenzamide derivative, method for preparing same, and pharmaceutical composition containing same as active ingredient for prevention or treatment of cancer” (DAEGU-GYEONGBUK MEDICAL INNOVATION FOUNDATION, priority 2020, dated 2026)

Legend:
Assay type in all cases: cell-based
[1] = tested on: Parental (Ba/F3); assay: Ba/F3 cell proliferation inhibition; details: BaF3; 72 hours, Cell Counting Kit-8
Procedure: (§1) […] lymphocyte cells, Parental (Ba/F3) and T315I-Bcr-Abl (Ba/F3) were seeded in 96-well plates at the density of 1×10^4/90 μL/well. A culture solution containing 9 concentrations (0.015 to 100 μM) of each example compound serially diluted in 3 folds or DMSO (control) were added to the plate ([…]) to a final concentration of 0 to 10 μM. The plate was incubated in a 37° C. CO2 incubator for 72 hours.
(§2) After incubation for 72 hours, the plate treated with the compound was treated with Cell Counting Kit-8 (Dojindo Molecular Technologies, Inc) solution at the concentration of 10 μL/well, and then mixed well. Then, the plate was incubated in a CO2 incubator at 37° C. for 2 hours, and absorbance at 450 nm was measured with a microplate reader. Data were expressed as percentage compared to vehicle treated cells and GI50 values were calculated using GraphPad Prism 5.0 (GraphPad software Inc., San Diego) GraphPad Prism 5.0.

[2] = tested on: T315I-Bcr-Abl (Ba/F3); assay: Ba/F3 cell proliferation inhibition; details: BaF3; 72 hours, Cell Counting Kit-8
Procedure: as §1, §2

[3] = tested on: KOPM28 cells; assay: human CML cell proliferation inhibition; details: 72 hours, Cell Counting Kit-8
Procedure: (§3) In order to evaluate the therapeutic effect of the compound according to the present invention on chronic myelogenous leukemia (CML), the following experiment was performed, and the results are shown in Table 6 below. Inhibitory activity to Bcr-Abl kinase was evaluated through the experiment using TCCS and KOPM28 cells, and inhibitory activity to T315I-Bcr-Abl kinase was evaluated through the experiment using T315I-TCCS and T315I-KOPM28 cells.
(§4) Human chronic myelogenous leukemia (CML) cells used in the experiment were TCCS, T315I-TCCS, KOPM28 and T315I-KOPM28, and the four types of cells were provided by University of Yamanashi.
(§5) Four types of human CML cells were each seeded in 96-well plates at the density of 1×10^4/90 μL/well. A culture solution containing 9 concentrations (0.000256 to 100 μM) of each example compound serially diluted in 5 folds or DMSO (control) were added to the plate (10 μL/well) to a final concentration of 0 to 10 μM. The plate was incubated in a 37° C. CO2 incubator for 72 hours.
as §2, with “8.0” for “5.0”, “Diego).” for “Diego) GraphPad Prism 5.0.”

[4] = tested on: T315I-KOPM28 cells; assay: human CML cell proliferation inhibition; details: 72 hours, Cell Counting Kit-8
Procedure: as §3, §4, §5
as §2, with “8.0” for “5.0”, “Diego).” for “Diego) GraphPad Prism 5.0.”

[5] = tested on: T315I-TCCS cells; assay: human CML cell proliferation inhibition; details: 72 hours, Cell Counting Kit-8
Procedure: as §3, §4, §5
as §2, with “8.0” for “5.0”, “Diego).” for “Diego) GraphPad Prism 5.0.”

[6] = tested on: TCCS cells; assay: human CML cell proliferation inhibition; details: 72 hours, Cell Counting Kit-8
Procedure: as §3, §4, §5
as §2, with “8.0” for “5.0”, “Diego).” for “Diego) GraphPad Prism 5.0.”

SMILES	GI50 [2] [nM]	GI50 [1] [µM]	GI50 [3] [nM]	GI50 [4] [nM]	GI50 [5] [nM]	GI50 [6] [nM]
Cc1cc(F)c(C(=O)Nc2cc(CN3CCN(CC(F)(F)F)CC3)cc(C(C)(C)C#N)c2)cc1C#Cc1cnc2c(Nc3cnn(C)c3)cccn12 [Example 32, N-(3-(2-cyanopropan-2-yl)-5-((4-(2,2,2-trifluoroethyl)piperazin-1-yl)methyl)phenyl)-2-fluoro-4-methyl-5-((8-((1-methyl-1H-pyrazol-4-yl)amino)imidazo[1,2-a]pyridin-3-yl)ethynyl)benzamide]	50 to 500	> 5	< 10	> 100	> 100	< 10
Cc1cc(F)c(C(=O)Nc2cc(CN3CCN(C(C)C)CC3)cc(C(C)(C)C#N)c2)cc1C#Cc1cnc2c(Nc3cnn(C)c3)cccn12 [Example 33, N-(3-(2-cyanopropan-2-yl)-5-((4-isopropylpiperazin-1-yl)methyl)phenyl)-2-fluoro-4-methyl-5-((8-((1-methyl-1H-pyrazol-4-yl)amino)imidazo[1,2-a]pyridin-3-yl)ethynyl)benzamide]	50 to 500	0.5 to 5	< 10	> 100	100	< 10
Cc1cc(F)c(C(=O)Nc2cc(CN3CCN(S(C)(=O)=O)CC3)cc(C(C)(C)C#N)c2)cc1C#Cc1cnc2c(Nc3cnn(C)c3)cccn12 [Example 34, N-(3-(2-cyanopropan-2-yl)-5-((4-(methylsulfonyl)piperazin-1-yl)methyl)phenyl)-2-fluoro-4-methyl-5-((8-((1-methyl-1H-pyrazol-4-yl)amino)imidazo[1,2-a]pyridin-3-yl)ethynyl)benzamide]	50 to 500	> 5	< 10	> 100	100	< 10
Cc1cc(F)c(C(=O)Nc2cc(CN3CCN(C)C(=O)C3)cc(C(C)(C)C#N)c2)cc1C#Cc1cnc2c(Nc3cnn(C)c3)cccn12 [Example 35, N-(3-(2-cyanopropan-2-yl)-5-((4-methyl-3-oxopiperazin-1-yl)methyl)phenyl)-2-fluoro-4-methyl-5-((8-((1-methyl-1H-pyrazol-4-yl)amino)imidazo[1,2-a]pyridin-3-yl)ethynyl)benzamide]	50 to 500	0.5 to 5	< 10	> 100	> 100	< 10
Cc1cc(F)c(C(=O)Nc2cc(CN3CC(OC(C)C)C3)cc(C(C)(C)C#N)c2)cc1C#Cc1cnc2c(Nc3cnn(C)c3)cccn12 [Example 36, N-(3-(2-cyanopropan-2-yl)-5-((3-isopropoxyazetidin-1-yl)methyl)phenyl)-2-fluoro-4-methyl-5-((8-((1-methyl-1H-pyrazol-4-yl)amino)imidazo[1,2-a]pyridin-3-yl)ethynyl)benzamide]	50 to 500	> 5	< 10	100	100	< 10

Second part, led by results:

GI50 [2] [nM]	SMILES	GI50 [1] [µM]	GI50 [3] [nM]	GI50 [4] [nM]	GI50 [5] [nM]	GI50 [6] [nM]
50 to 500	Cc1cc(F)c(C(=O)Nc2cc(Cn3ccnc3)cc(C(C)(C)C#N)c2)cc1C#Cc1cnc2c(Nc3cnn(C)c3)cccn12 [Example 37, N-(3-((1H-imidazol-1-yl)methyl)-5-(2-cyanopropan-2-yl)phenyl)-2-fluoro-4-methyl-5-((8-((1-methyl-1H-pyrazol-4-yl)amino)imidazo[1,2-a]pyridin-3-yl)ethynyl)benzamide]	> 5	< 10	100	100	< 10
< 50	Cc1cc(F)c(C(=O)Nc2cc(Cn3cncn3)cc(C(C)(C)C#N)c2)cc1C#Cc1cnc2c(Nc3cnn(C)c3)cccn12 [Example 38, N-(3-((1H-1,2,4-triazol-1-yl)methyl)-5-(2-cyanopropan-2-yl)phenyl)-2-fluoro-4-methyl-5-((8-((1-methyl-1H-pyrazol-4-yl)amino)imidazo[1,2-a]pyridin-3-yl)ethynyl)benzamide]	> 5	< 10	100	< 10	< 10
< 50	Cc1cc(F)c(C(=O)Nc2ccc(CN3CCN(C)CC3)c(C(C)(C)C#N)c2)cc1C#Cc1cnc2c(Nc3cnn(C)c3)cccn12 [Example 39, N-(3-(2-cyanopropan-2-yl)-4-((4-methylpiperazin-1-yl)methyl)phenyl)-2-fluoro-4-methyl-5-((8-((1-methyl-1H-pyrazol-4-yl)amino)imidazo[1,2-a]pyridin-3-yl)ethynyl)benzamide]	> 5	< 10	100	100	< 10
50 to 500	Cc1cc(F)c(C(=O)Nc2ccc(CN3CCOCC3)c(C(C)(C)C#N)c2)cc1C#Cc1cnc2c(Nc3cnn(C)c3)cccn12 [Example 40, N-(3-(2-cyanopropan-2-yl)-4-(morpholinomethyl)phenyl)-2-fluoro-4-methyl-5-((8-((1-methyl-1H-pyrazol-4-yl)amino)imidazo[1,2-a]pyridin-3-yl)ethynyl)benzamide]	> 5	< 10	> 100	> 100	< 10
50 to 500	Cc1cc(F)c(C(=O)Nc2ccc(CN3CCC(N(C)C)C3)c(C(C)(C)C#N)c2)cc1C#Cc1cnc2c(Nc3cnn(C)c3)cccn12 (stereo not drawn) [Example 41, N-(3-(2-cyanopropan-2-yl)-4-((3-(dimethylamino)pyrrolidin-1-yl)methyl)phenyl)-2-fluoro-4-methyl-5-((8-((1-methyl-1H-pyrazol-4-yl)amino)imidazo[1,2-a]pyridin-3-yl)ethynyl)benzamide]	0.5 to 5	< 10	> 100	> 100	< 10
50 to 500	Cc1cc(F)c(C(=O)Nc2ccc(CN3CCCN(C)CC3)c(C(C)(C)C#N)c2)cc1C#Cc1cnc2c(Nc3cnn(C)c3)cccn12 [Example 42, N-(3-(2-cyanopropan-2-yl)-4-((4-methyl-1,4-diazepan-1-yl)methyl)phenyl)-2-fluoro-4-methyl-5-((8-((1-methyl-1H-pyrazol-4-yl)amino)imidazo[1,2-a]pyridin-3-yl)ethynyl)benzamide]	0.5 to 5	< 10	> 100	100	< 10
50 to 500	Cc1cc(F)c(C(=O)Nc2ccc(CN3CCN(CCO)CC3)c(C(C)(C)C#N)c2)cc1C#Cc1cnc2c(Nc3cnn(C)c3)cccn12 [Example 43, N-(3-(2-cyanopropan-2-yl)-4-((4-(2-hydroxyethyl)piperazin-1-yl)methyl)phenyl)-2-fluoro-4-methyl-5-((8-((1-methyl-1H-pyrazol-4-yl)amino)imidazo[1,2-a]pyridin-3-yl)ethynyl)benzamide]	0.5 to 5	< 10	> 100	100	< 10
50 to 500	Cc1cc(F)c(C(=O)Nc2ccc(CN3CCN(C)C(=O)C3)c(C(C)(C)C#N)c2)cc1C#Cc1cnc2c(Nc3cnn(C)c3)cccn12 [Example 44, N-(3-(2-cyanopropan-2-yl)-4-((4-methyl-3-oxopiperazin-1-yl)methyl)phenyl)-2-fluoro-4-methyl-5-((8-((1-methyl-1H-pyrazol-4-yl)amino)imidazo[1,2-a]pyridin-3-yl)ethynyl)benzamide]	0.5 to 5	< 10	> 100	> 100	< 10
